The text below walks through data of publication PMC10967822, “Antimicrobial Indole-3-Carboxamido-Polyamine Conjugates Target Bacterial Membranes and Are Antibiotic Potentiators” (Biomolecules, 2024).

The structures appear in SMILES notation. Values after ≈ are worked out from the molar mass of the structure shown. Where only a bound is given, the exact number is not on record here.

The test system of one data set is C. albicans ATCC 90028. Put plainly: Antifungal MIC (CO-ADD), C. albicans. The data set is classed as cell-based. The conditions noted are these: Candida albicans, ATCC90028, top dose 32 µg/mL. The method in brief:
(§1)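 MIC for C. neoformans determined by OD570–600 following a further 3 h with resazurin (0.006% final), whereas C. albicans was read directly at OD530. Both grown static in YNB broth at 2.5 × 10^3 CFU/mL final inoculum, 35 °C for 36 h, from colonies cultured on YPD agar 3 days at 30 °C.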
In general, MIC refers to the smallest concentration in the dilution series that meets the test's criterion for growth inhibition. On to `COc1cccc2c(C(=O)NCCCNCCCCCCCCCCCCNCCCNC(=O)c3c[nH]c4c(OC)cccc34)c[nH]c12.O=C(O)C(F)(F)F.O=C(O)C(F)(F)F` [Compound 17f], for which the lowest concentration to inhibit growth (MIC) was 4.5 µM.
Consider `Cc1cccc2c(C(=O)NCCCNCCCCCCNCCCNC(=O)c3c[nH]c4c(C)cccc34)c[nH]c12` [Compound 18b], for which the minimum inhibitory concentration (MIC) is > 41 µM.
Turning to `Cc1cccc2c(C(=O)NCCCNCCCCCCCNCCCNC(=O)c3c[nH]c4c(C)cccc34)c[nH]c12` [Compound 18c], the MIC is > 41 µM.

For a further data set, the system named is human red blood cells. The data set can be described thus: Hemolytic assay. To be noted: 10% hemolytic activity, mean n = 2. The data set is classed as cell-based. The method in brief:
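Compounds were applied to saline-washed human red blood cells at 0.5 × 10^8 cells/mL, 37 °C, 1 h. Lysis was measured by supernatant absorbance at 405 nm, and concentrations giving 10% and 50% haemolysis were obtained by variable-slope curve fitting.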
As for `COc1cccc2c(C(=O)NCCCNCCCCCCCCCCCCNCCCNC(=O)c3c[nH]c4c(OC)cccc34)c[nH]c12.O=C(O)C(F)(F)F.O=C(O)C(F)(F)F` [Compound 17f], the “Hemolysis HC10” value was >36 µM.
Turning to `Cc1cccc2c(C(=O)NCCCNCCCCCCNCCCNC(=O)c3c[nH]c4c(C)cccc34)c[nH]c12` [Compound 18b], the “Hemolysis HC10” value is reported as >41 µM.
Turning to `Cc1cccc2c(C(=O)NCCCNCCCCCCCNCCCNC(=O)c3c[nH]c4c(C)cccc34)c[nH]c12` [Compound 18c], the “Hemolysis HC10” value is on record as >41 µM.

The next data set deals with K. pneumoniae ATCC 700603. Put plainly: MIC, broth microdilution (CO-ADD), K. pneumoniae. The conditions noted are these: top dose 32 µg/mL.
Turning to `COc1cccc2c(C(=O)NCCCNCCCCCCCCCCCCNCCCNC(=O)c3c[nH]c4c(OC)cccc34)c[nH]c12.O=C(O)C(F)(F)F.O=C(O)C(F)(F)F` [Compound 17f], the “MIC Kp” value is >36 µM.
Consider `Cc1cccc2c(C(=O)NCCCNCCCCCCNCCCNC(=O)c3c[nH]c4c(C)cccc34)c[nH]c12` [Compound 18b], for which the “MIC Kp” value is listed as >41 µM.
For the compound `Cc1cccc2c(C(=O)NCCCNCCCCCCCNCCCNC(=O)c3c[nH]c4c(C)cccc34)c[nH]c12` [Compound 18c], the “MIC Kp” value is >41 µM.

A further data set deals with C. neoformans ATCC 208821. The data set can be described thus: Antifungal MIC (CO-ADD), C. neoformans. The format is cell-based. To be noted: Cryptococcus neoformans, ATCC208821, top dose 32 µg/mL. The method in brief:
as §1
Turning to `COc1cccc2c(C(=O)NCCCNCCCCCCCCCCCCNCCCNC(=O)c3c[nH]c4c(OC)cccc34)c[nH]c12.O=C(O)C(F)(F)F.O=C(O)C(F)(F)F` [Compound 17f], the MIC was ≤ 0.28 µM.
On to `Cc1cccc2c(C(=O)NCCCNCCCCCCNCCCNC(=O)c3c[nH]c4c(C)cccc34)c[nH]c12` [Compound 18b], for which the MIC is ≤ 0.32 µM.
On the same count and under the same terms, the result for `Cc1cccc2c(C(=O)NCCCNCCCCCCCNCCCNC(=O)c3c[nH]c4c(C)cccc34)c[nH]c12` [Compound 18c] reads ≤ 0.32 µM.

The next data set deals with E. coli ATCC 25922. The data set can be described thus: MIC, broth dilution, E. coli. The data set is classed as cell-based, Escherichia coli. The conditions noted are these: Escherichia coli, ATCC25922; E. coli ATCC 25922, 18 h. A general note: Dilution methods test growth across graded concentrations, often in twofold steps.
In the case of `COc1cccc2c(C(=O)NCCCNCCCCCCCCCCCCNCCCNC(=O)c3c[nH]c4c(OC)cccc34)c[nH]c12.O=C(O)C(F)(F)F.O=C(O)C(F)(F)F` [Compound 17f], the MIC was 28.1 µM.
The compound `Cc1cccc2c(C(=O)NCCCNCCCCCCNCCCNC(=O)c3c[nH]c4c(C)cccc34)c[nH]c12` [Compound 18b] gave an MIC of 129 µM (≈ 70.3 µg/mL).
Turning to `Cc1cccc2c(C(=O)NCCCNCCCCCCCNCCCNC(=O)c3c[nH]c4c(C)cccc34)c[nH]c12` [Compound 18c], the MIC was > 254 µM.

Tested on in the next data set: not listed separately
Put plainly: Cytotoxicity assay (resazurin). To be noted: human, HEK293 cells, mean n = 2. The format is cell-based. Background: Resazurin is reduced to fluorescent resorufin, in cell work by metabolically active cells.
One may read the IC50 as the concentration at which inhibition is half-maximal. Lower therefore signals greater potency in that assay. As for `COc1cccc2c(C(=O)NCCCNCCCCCCCCCCCCNCCCNC(=O)c3c[nH]c4c(OC)cccc34)c[nH]c12.O=C(O)C(F)(F)F.O=C(O)C(F)(F)F` [Compound 17f], the IC50 at 20 h is > 36 µM.
Turning to `Cc1cccc2c(C(=O)NCCCNCCCCCCNCCCNC(=O)c3c[nH]c4c(C)cccc34)c[nH]c12` [Compound 18b], the IC50 at 20 h is > 41 µM.
As for `Cc1cccc2c(C(=O)NCCCNCCCCCCCNCCCNC(=O)c3c[nH]c4c(C)cccc34)c[nH]c12` [Compound 18c], the IC50 at 20 h was > 41 µM.

Another data set concerns S. aureus ATCC 25923. Put plainly: MIC, broth dilution, S. aureus. The format is cell-based, Staphylococcus aureus. To be noted: Staphylococcus aureus, ATCC25923; S. aureus ATCC 25923, 18 h; read-out: MIC Sa.
With `COc1cccc2c(C(=O)NCCCNCCCCCCCCCCCCNCCCNC(=O)c3c[nH]c4c(OC)cccc34)c[nH]c12.O=C(O)C(F)(F)F.O=C(O)C(F)(F)F` [Compound 17f], the MIC stood at 7.03 µM.
On to `Cc1cccc2c(C(=O)NCCCNCCCCCCNCCCNC(=O)c3c[nH]c4c(C)cccc34)c[nH]c12` [Compound 18b], for which the MIC was found to be 129 µM (≈ 70.3 µg/mL).
Take `Cc1cccc2c(C(=O)NCCCNCCCCCCCNCCCNC(=O)c3c[nH]c4c(C)cccc34)c[nH]c12` [Compound 18c]: the MIC was > 254 µM.

The test system of another data set is P. aeruginosa ATCC 27853. Put plainly: Doxycycline potentiation against P. aeruginosa. The conditions noted are these: doxycycline at 2 µg/mL (4.5 µM), P. aeruginosa ATCC 27853. The format is cell-based, Pseudomonas aeruginosa. The text has this: (§2) These measurements were independently repeated in triplicate.
As to `COc1cccc2c(C(=O)NCCCNCCCCCCCCCCCCNCCCNC(=O)c3c[nH]c4c(OC)cccc34)c[nH]c12.O=C(O)C(F)(F)F.O=C(O)C(F)(F)F` [Compound 17f], the “Dox/Pa fold-change (intrinsic MIC / combination MIC)” value worked out at 4 fold.
As to `Cc1cccc2c(C(=O)NCCCNCCCCCCNCCCNC(=O)c3c[nH]c4c(C)cccc34)c[nH]c12` [Compound 18b], the “Dox/Pa fold-change (intrinsic MIC / combination MIC)” value is on record as > 8 fold.
With `Cc1cccc2c(C(=O)NCCCNCCCCCCCNCCCNC(=O)c3c[nH]c4c(C)cccc34)c[nH]c12` [Compound 18c], the “Dox/Pa fold-change (intrinsic MIC / combination MIC)” value is 16 fold.

The same data set, now with this note: doxycycline at 2 µg/mL (4.5 µM), P. aeruginosa ATCC 27853, mean n = 3.
Consider `COc1cccc2c(C(=O)NCCCNCCCCCCCCCCCCNCCCNC(=O)c3c[nH]c4c(OC)cccc34)c[nH]c12.O=C(O)C(F)(F)F.O=C(O)C(F)(F)F` [Compound 17f], for which the “Dox/Pa: concentration required to restore doxycycline activity (combination MIC)” value (from here on “Dox/Pa: concentration required”) was found to be 56.2 µM.
`Cc1cccc2c(C(=O)NCCCNCCCCCCNCCCNC(=O)c3c[nH]c4c(C)cccc34)c[nH]c12` [Compound 18b]: the “Dox/Pa: concentration required” value was found to be 32.4 µM.
For the compound `Cc1cccc2c(C(=O)NCCCNCCCCCCCNCCCNC(=O)c3c[nH]c4c(C)cccc34)c[nH]c12` [Compound 18c], the “Dox/Pa: concentration required” value was 15.9 µM.

Another data set has as its system A. baumannii ATCC 19606. Put plainly: MIC, broth microdilution (CO-ADD), A. baumannii. The data set is classed as cell-based, Acinetobacter baumannii. The conditions noted are these: Acinetobacter baumannii, ATCC19606, top dose 32 µg/mL.
Take `COc1cccc2c(C(=O)NCCCNCCCCCCCCCCCCNCCCNC(=O)c3c[nH]c4c(OC)cccc34)c[nH]c12.O=C(O)C(F)(F)F.O=C(O)C(F)(F)F` [Compound 17f]: the MIC was > 36 µM.
For `Cc1cccc2c(C(=O)NCCCNCCCCCCNCCCNC(=O)c3c[nH]c4c(C)cccc34)c[nH]c12` [Compound 18b], the MIC was > 41 µM.
Still for that read-out and setting: the same measure for `Cc1cccc2c(C(=O)NCCCNCCCCCCCNCCCNC(=O)c3c[nH]c4c(C)cccc34)c[nH]c12` [Compound 18c]: > 41 µM.

A further data set relates to E. coli ATCC 25922. The data set can be described thus: Erythromycin potentiation against E. coli. The data set is classed as cell-based, Escherichia coli. The conditions noted are these: erythromycin at 2 µg/mL (2.7 µM), E. coli.
Excerpt: as §2
On to `COc1cccc2c(C(=O)NCCCNCCCCCCCCCCCCNCCCNC(=O)c3c[nH]c4c(OC)cccc34)c[nH]c12.O=C(O)C(F)(F)F.O=C(O)C(F)(F)F` [Compound 17f], for which the “Erythro/Ec fold-change (intrinsic MIC / combination MIC)” value is listed as 0.5 fold.
Regarding `Cc1cccc2c(C(=O)NCCCNCCCCCCNCCCNC(=O)c3c[nH]c4c(C)cccc34)c[nH]c12` [Compound 18b], the “Erythro/Ec fold-change (intrinsic MIC / combination MIC)” value is given as 4 fold.
In the case of `Cc1cccc2c(C(=O)NCCCNCCCCCCCNCCCNC(=O)c3c[nH]c4c(C)cccc34)c[nH]c12` [Compound 18c], the “Erythro/Ec fold-change (intrinsic MIC / combination MIC)” value is 1 fold.

The same data set, now with this note: erythromycin at 2 µg/mL (2.7 µM), mean n = 3.
For `COc1cccc2c(C(=O)NCCCNCCCCCCCCCCCCNCCCNC(=O)c3c[nH]c4c(OC)cccc34)c[nH]c12.O=C(O)C(F)(F)F.O=C(O)C(F)(F)F` [Compound 17f], the “Erythro/Ec: concentration required to restore erythromycin activity (combination MIC)” value (shortened to “Erythro/Ec: concentration required”) came to 56.2 µM.
On to `Cc1cccc2c(C(=O)NCCCNCCCCCCNCCCNC(=O)c3c[nH]c4c(C)cccc34)c[nH]c12` [Compound 18b], for which the “Erythro/Ec: concentration required” value is reported as 32.4 µM.
Take `Cc1cccc2c(C(=O)NCCCNCCCCCCCNCCCNC(=O)c3c[nH]c4c(C)cccc34)c[nH]c12` [Compound 18c]: the “Erythro/Ec: concentration required” value is listed as > 254 µM.

Another data set deals with MRSA ATCC 43300. Put plainly: MIC, broth microdilution (CO-ADD), MRSA. The data set is classed as cell-based, methicillin-resistant S. aureus. To be noted: Staphylococcus aureus; MRSA ATCC 43300; top dose 32 µg/mL; read-out: MIC MRSA.
As to `COc1cccc2c(C(=O)NCCCNCCCCCCCCCCCCNCCCNC(=O)c3c[nH]c4c(OC)cccc34)c[nH]c12.O=C(O)C(F)(F)F.O=C(O)C(F)(F)F` [Compound 17f], the MIC is ≤ 0.28 µM.
As for `Cc1cccc2c(C(=O)NCCCNCCCCCCNCCCNC(=O)c3c[nH]c4c(C)cccc34)c[nH]c12` [Compound 18b], the minimal inhibitory concentration (MIC) is > 41 µM.
`Cc1cccc2c(C(=O)NCCCNCCCCCCCNCCCNC(=O)c3c[nH]c4c(C)cccc34)c[nH]c12` [Compound 18c]: the MIC is ≤ 0.32 µM.

A further data set deals with P. aeruginosa ATCC 27853. Put plainly: MIC, broth dilution, P. aeruginosa. The data set is classed as cell-based, Pseudomonas aeruginosa. The conditions noted are these: Pseudomonas aeruginosa, ATCC27853; P. aeruginosa ATCC 27853, 18 h; read-out: MIC Pa.
Take `COc1cccc2c(C(=O)NCCCNCCCCCCCCCCCCNCCCNC(=O)c3c[nH]c4c(OC)cccc34)c[nH]c12.O=C(O)C(F)(F)F.O=C(O)C(F)(F)F` [Compound 17f]: the MIC worked out at 225 µM.
Still for that read-out and setting: the same measure for `Cc1cccc2c(C(=O)NCCCNCCCCCCNCCCNC(=O)c3c[nH]c4c(C)cccc34)c[nH]c12` [Compound 18b]: > 259 µM; for `Cc1cccc2c(C(=O)NCCCNCCCCCCCNCCCNC(=O)c3c[nH]c4c(C)cccc34)c[nH]c12` [Compound 18c]: 254 µM (≈ 142 µg/mL).
